Measurements as given in US9783575B2, “Methyl degron peptide and methods of controlling protein lifespan” (Seoul National University (SNU) R&D Foundation, priority 2012, dated 2017).

Assays:
[1] = tested on: EZH2; assay: Immunoblot of EZH2 and RORα protein levels with DZNep; type: cell-based; details: MCF7 cells, DZNep 1 μM, 24 hr, immunoblot (FIG. 19)
Source text: (§1) In order to determine whether the ubiquitin-proteasome pathway is responsible for RORα degradation and to further examine whether the introduction of EZH2 augments RORα ubiquitination by allowing increased RORα methylation, we performed an RORα ubiquitination assay with EZH2 in the presence of a 26S proteasome inhibitor, MG132. […] To further examine whether K38 methylation directly affects RORα ubiquitination, we performed a ubiquitination assay for RORα WT and RORα K38A in the presence of MG132. Indeed, RORα K38A mutation led to a marked reduction in RORα ubiquitination compared to RORα WT (FIG. 18). Next, we examined whether an EZH2 small molecule inhibitor, exemplified by DZNep, rescues the EZH2-mediated degradation of RORα.

[2] = tested on: RORα ubiquitination; assay: RORα ubiquitination assay with DZNep; type: cell-based; details: HEK-293T cells, DZNep 1 μM, 24 hr (FIG. 20)
Procedure: Cells were transfected with combinations of plasmids including HisMax-ubiquitin. After incubation for 48 hrs, cells were treated with MG132, lysed in buffer A (6 M guanidinium-HCl, 0.1 M Na2HPO4/NaH2PO4, 0.01 M Tris-Cl [pH 8.0], 5 mM imidazole, and 10 mM β-mercaptoethanol), and incubated with Ni^2+-NTA beads (Qiagen) for 4 hrs at room temperature. The beads were sequentially washed with buffer A, buffer B (8 M urea, 0.1 M Na2PO4/NaH2PO4, 0.01 M Tris-Cl [pH 8.0], and 10 mM β-mercaptoethanol), and buffer C (8 M urea, 0.1 M Na2PO4/NaH2PO4, 0.01 M Tris-Cl [pH 6.3], and 10 mM β-mercaptoethanol). Bound proteins were eluted with buffer D (200 mM imidazole, 0.15 M Tris-Cl [pH 6.7], 30% glycerol, 0.72 M β-mercaptoethanol, and 5% SDS), and subject to immunoblot analysis.
as §1, with “Next, we examined whether an EZH2 small molecule inhibitor, exemplified by DZNep, rescues the EZH2-mediated degradation of RORα.” left out

[3] = tested on: MCF7 breast cancer cells; assay: Cell transformation assay (anchorage-independent growth in soft agar); type: cell-based; set-up: dose or concentration left out as unconfirmed; details: 3 weeks (FIG. 60)
Procedure: Representative images are shown for each group. Immunoblot analysis was performed to detect each protein level. […]

[4] = target: T1, EZH2 (Homo sapiens, UniProt Q15910); assay: In vitro methyltransferase (HMTase) assay with mass spectrometry; type: biochemical; details: 100 μM synthetic peptide, GST-EZH2, LC-MS (FIG. 4)
T1 construct: GST
Procedure: Small quantities (100 μM) of synthetic peptides (RORα WT) were used as substrates in the HMTase assay with EZH2 enzyme; the reaction was stopped by 10% TCA precipitation for 10 min at 4° C. After removing the precipitates by centrifugation, the supernatants were retrieved and methylated peptides in the supernatants were analyzed by LC-MS. The eluted peptides were separated on a Luna column (C18 PepMap 100, 150×1 mm 5 micron) with a linear gradient (A: 100% H2O, 0.1% formic acid, B: 100% ACN, 0.1% formic acid) at a flow rate of […]. Typically, 2 μL of sample was injected. Mass spectrometry was performed on a linear ion trap mass spectrometer (LCQ DECA XP, Thermo Finningan) coupled to a nano-LC system (NANOSPACE SI-2, Shiseido). The MS method consisted of a cycle combining one full MS scan (Mass range: 160-2000 m/z).
The association of EZH2 with RORα at endogenous levels was confirmed by co-immunoprecipitation analysis (FIG. 3). To assess whether RORα is methylated by EZH2 and to determine the methylation status of RORα, peptides bearing amino acids 31-40 of RORα (LNQESARKSE) were in vitro methylated by EZH2 and analyzed by mass spectrometry. […]

T1 sequence (Q15910 whole entry, species assumed): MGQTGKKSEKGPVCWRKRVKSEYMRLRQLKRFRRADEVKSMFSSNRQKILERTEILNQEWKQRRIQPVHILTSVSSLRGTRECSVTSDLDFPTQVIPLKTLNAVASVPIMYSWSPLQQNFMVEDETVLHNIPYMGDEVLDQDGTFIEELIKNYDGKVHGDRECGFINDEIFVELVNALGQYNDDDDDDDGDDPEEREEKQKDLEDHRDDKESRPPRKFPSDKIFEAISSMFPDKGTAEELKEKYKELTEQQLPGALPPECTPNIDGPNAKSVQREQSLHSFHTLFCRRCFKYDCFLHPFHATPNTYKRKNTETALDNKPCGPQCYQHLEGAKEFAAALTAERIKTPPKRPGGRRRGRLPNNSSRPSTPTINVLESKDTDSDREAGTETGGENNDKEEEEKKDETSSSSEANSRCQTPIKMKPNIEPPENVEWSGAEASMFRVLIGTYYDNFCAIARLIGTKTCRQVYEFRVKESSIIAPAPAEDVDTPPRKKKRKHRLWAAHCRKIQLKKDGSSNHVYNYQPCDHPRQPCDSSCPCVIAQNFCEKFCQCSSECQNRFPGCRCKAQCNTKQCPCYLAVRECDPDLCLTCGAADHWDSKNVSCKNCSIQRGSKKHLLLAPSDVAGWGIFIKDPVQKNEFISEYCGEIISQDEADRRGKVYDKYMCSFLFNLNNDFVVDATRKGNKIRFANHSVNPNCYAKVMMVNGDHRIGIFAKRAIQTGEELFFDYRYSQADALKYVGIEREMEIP

| Compound | EZH2 protein levels [1] | RORα protein levels [1] | RORα ubiquitination levels [2] | cellular transformation (colony formation in soft agar) [3] | methylation of peptide by EZH2 [4] |
| --- | --- | --- | --- | --- | --- |
| Nc1nccc2c1ncn2C1C=C(CO)C(O)C1O (centres unmarked) [DZNep] | reduction of EZH2 protein levels | increases in RORα protein levels | decreased | inhibitory effect on cellular transformation |  |
| LNQESARKSE [RORα wild-type (WT) peptide, peptide bearing amino acids 31-40 of RORα] |  |  |  |  | addition of one methyl group to the K38 site |
